Measurements taken from publication PMC11964630 (Journal of Pharmaceutical Analysis, 2024).

System: U87MG xenograft-bearing NOD/SCID mice
Test: Ex vivo biodistribution in U87MG xenograft model
Set-up: species or system mouse
Conditions: single i.v. dose of atezolizumab 20 mg/kg, 24 h before [^18F]AlF-NOTA-PCP2

atezolizumab: anti-PD-L1 antibody used for blockade, 20 mg/kg
decrease in tracer uptake in U87MG tumors: 92.2%
